Measurements reported in patent publication US9125352B2, “Method for maturing and synchronizing conifer somatic embryos” (SweTree Technologies AB, priority 2010, dated 2015).

Tests used:
somatic embryo cultures = assay: Embryo culture in medium with plasmolytic or near plasmolytic concentration of sugar alcohol (general findings); assay type: cell-based; conditions: for effect on maturation in the embryo cultures: plasmolytic or near plasmolytic concentration
Excerpt: The invention is based on a serendipitous discovery. Gene transfer to spruce somatic embryos using a particle gun was experimented with, using a special medium originally designed for use with gene transfer for embryogenic cultures, containing 0.25, M myo-inositol. The resulting plasmolysis reduces damage during penetration by the gold particles, since it relaxes the tension in the cell membranes and minimizes tearing. By mistake, the somatic embryos were left in this medium for 12, days instead of returning them to the normal proliferation medium as intended. […] Consequently, the cells are first plasmolyzed and then gradually deplasmolyzed.

[1] = tested on: embryogenic cells, cell-line 06:28:05; assay: Comparison of inositol with other sugar alcohols and with sucrose on solid DKM+ABA maturation medium (Example 3); assay type: cell-based, Norway spruce; conditions: for Plates with 10 high quality embryos: addition to standard medium: 0.25 M (or 0.125 M + 0.125 M), three plates of 1.0-1.5 g cells per treatment
Excerpt: The action of 0.25, M inositol in improving somatic embryo quality is likely to be partly osmotic, partly nutritional, with cell signaling effects also involved. The inventors tested whether 0.25, M inositol could be replaced with 0.25, M of other sugar alcohols (mannitol and sorbitol) or 0.25, M extra sucrose by spreading 1.0, to 1.5, g fresh weight of embryogenic cells, cell-line 06:28:05, on each of six plates of solid DKM+ABA maturation medium for continued growth and development over four weeks, with one subculture after 2, weeks. The cells were then subcultured onto three plates each (1.0-1.5, g cells per plate) of medium containing in addition either a) 0.25, M inositol, or b) 0.125, M mannitol and 0.125, M sorbitol, or c) 0.25, M sucrose. Control cells continued on standard medium. After three weeks, embryos of good quality were transferred to germination medium, ten embryos per petri dish, as a rough quantitative estimate of quality.

[2] = tested on: Mexican Yellow Pine, Pinus oocarpa, line 2; assay: Corresponding inositol experiments with Mexican Yellow Pine (Example 6); assay type: cell-based; conditions: inositol series as for Scots pine
[3] = tested on: embryogenic callus of Scots pine, Pinus sylvestris, cell-line 42:6:3; assay: Inositol concentration series on DCR maturation medium and germination on DKM (Example 6); assay type: cell-based
Excerpt: In order to verify the broad use of the newly invented method, additional conifers have been tested by adapting the methods of Examples 4, and 5. Embryogenic callus of Scots pine, Pinus sylvestris, cell-line 42:6:3, was proliferated on DCR medium (Burg et al. 2007:, J. Exp. Bot. 58: 687-698) containing 2,4-D and BA at the same concentrations as described for spruce. The cells were taken through the early maturation step on DCR medium containing 7.5% polyethylene glycol 400, 3% maltose (replacing sucrose) and 16, mg per liter abscisic acid (Burg et al. 2007:, J. Exp. Bot. 58: 687-698). Samples of cells were then exposed to the same medium containing inositol at concentrations of 0.0005, M 0.1, M, 0.2, M, 0.25, M, 0.3, M or 0.5 M for four weeks. […] Somatic embryogenesis is more problematic in pine than in spruce, so that experiments with mature embryos were on a small scale.

[4] = tested on: embryogenic callus of Norway spruce, cell-lines 61:21, 19:01 and 28:05; assay: Inositol concentration series on maturation medium, embryo quality measurements (Example 4); assay type: cell-based; conditions: for root development, indicating premature germination: FIG. 2a-c
Excerpt: To investigate how various inositol concentrations synchronize embryo development and affect the quality of the developing embryos, three cell-lines of embryogenic callus of Norway spruce, cell-lines 61:21, 19:01, and 28:05, were exposed to 1, week on prematuration medium, and matured for 40, days, 36, days or 33, days, respectively on maturation medium with subculturing every two weeks. Small clumps about 1, cm diameter of maturing embryos were then subcultured on maturation medium containing 0.0005, M (here denoted 0, M), 0.06, M, 0.1, M, 0.2, M, 0.25, M or […] inositol.
Twenty individual mature embryos or small plantlets were picked randomly from the plates and the following measurements were taken, for quality measurement, see FIG. 1: width of hypocotyls (1), width across the cotyledons one third of the way down of the hypocotyls (2), width across the cotyledons two third of the way down of the hypocotyls (3) and length of the hypocotyls (4), length of root (5).

[5] = tested on: Norway spruce embryos, cell-lines 95:61:21 (61:21), 19:01 and 28:05; assay: Germination (root length) on germination medium after inositol treatment, without partial drying (Example 5); assay type: cell-based
Experimental: Then 15, embryos from each concentration of inositol were transferred to germination medium (same as the prematuration medium). The progress of germination was measured by root length after 11, days on germination medium. Germination was fastest for the embryos that had been treated with 0.25, M inositol FIG. 6a. The difference between the root lengths after treatment at the three highest concentrations compared with those at the three lowest concentrations was highly significant by t-test (P<0.001). The experiment was repeated with another replicate of cell-line 61:21. This time, the inositol treatment was for 25, days, the small clumps of embryos were transferred to prematuration medium for 9, days, then 10, embryos were individually planted on prematuration medium and root length was measured 29, days later. […] The length of inositol treatment was 16, days for both lines. Root length was measured 12, or 14, days according to cell-line after transfer of 20, embryos for each concentration of inositol to prematuration medium for germination. For all four experiments of Example 5, root length after treatments of 0.2, to 0.3 M inositol was compared to root length after treatments with 0, to 0.1, M inositol in a paired t-test. […] The inventors have compared on a small scale the germination of inositol-treated embryos with partially dried embryos that have been matured by standard procedures.

[6] = tested on: embryos of cell-line 28:05; assay: Growth of germinated inositol-treated embryos in stonewool pots for three months (Example 5); assay type: in vivo, Norway spruce
Experimental: Embryos of cell-line 28:05, treated with 0.25, M inositol and germinated in vitro as described above were grown on in stonewool in plastic pots 8×8×10, cm with standard commercial mineral nutrition in a growth chamber in continuous light at 20° C. for three months.

[7] = tested on: embryogenic cultures of cell-line 06:28:05; assay: Maturation in temporary-immersion bioreactors, DKM+ABA then DKM+0.25 M inositol+ABA, then germination (Example 2); assay type: cell-based, Norway spruce
Experimental: Several experiments were performed to confirm the observations of Example 1 and to refine the novel culture method. Subsequent experiments confirm that the process of bombardment itself has no effect additional to the inclusion of 0.25, M myo-inositol in the medium. In the present experiment, embryogenic cultures of the same cell-line 06:28:05, were matured in bioreactors that enabled periodic temporary submersion in liquid DKM containing ABA. In two bioreactors, the embryos were matured for 38, days in DKM+ABA, then for 25 days in DKM+0.25, M inositol+ABA. In two control bioreactors, the cultures were maintained continuously in DKM+ABA, without the inositol treatment.
Embryos from the experimental and control reactors were placed on solid germination media in petri dishes mainly to optimize germination media. Plantlet quality was assessed after 6, days' germination as ‘bent’ or ‘not bent’. Whereas only 12, out of 134, (9%) inositol-treated embryos developed into bent plantlets, 50, out of 140, (36%) of the control embryos developed into bent plantlets. The difference was highly significant (P<0.0001) by Fisher's contingency test.

[8] = tested on: somatic embryos of Norway spruce, cell line 06:28:05; assay: Mature embryos left 12 days in maturation medium with 0.25 M inositol after particle bombardment (Example 1); assay type: cell-based
Excerpt: The aim of the experiment was to infect somatic embryos of Norway spruce with a virus using a particle gun according to a routine method (Clapham et al. 2000: Scand. J. For. Res. 15:151-160) and derive plants containing the virus. The original standard bombardment procedure was developed for the transformation of embryogenic cultures consisting of immature embryos (i.e. proembryonic masses or PEMs). In the original protocol, from one to two hours before bombardment with gold particles coated with DNA, the cells are temporarily plasmolyzed with 0.25 M myo-inositol in proliferation medium (Table 4) to reduce damage from the penetration of the gold particles.
In the present experiment, mature embryos instead of PEMs were bombarded. The cultures of cell line 06:28:05, had been matured on standard DKM medium containing ABA for 50, days before bombardment. The embryos were exposed to medium containing 0.25, M inositol for 1-2, hours before bombardment. After bombardment the cells were unintentionally left in maturation medium containing 0.25, M inositol for 12, days, then returned to standard DKM medium containing ABA. […] About 50 plantlets with more or less well developed roots were planted out at once in pots containing mineral wool, which is not usually possible; fifteen of these survived and continued to grow. Sixty-two additional plantlets were grown aseptically on solid standard germination medium (quarter strength Schenk and Hildebrandt) to develop the root system for about 2, months; 51, of these grew well enough to plant out in pots of mineral wool. At least 48, of the plants were growing vigorously a month later. The appearance of these somatic embryo-derived plants encouraged the inventors to believe that mature embryos exposed to the relatively high concentration of inositol in the present experiment were of unusually high quality and ready for germination, without partial drying under high humidity for 2-3, weeks as in the standard procedure.

[9] = high concentrations of inositol
[10] = 0.25 M inositol, after 6 days' germination, out of 134 embryos

OC[C@@H](O)[C@@H](O)[C@H](O)[C@@H](O)CO [sorbitol]
effect on maturation in the embryo cultures (somatic embryo cultures): induce synchronous maturation

OC[C@H]1O[C@@](CO)(O[C@H]2O[C@H](CO)[C@@H](O)[C@H](O)[C@H]2O)[C@@H](O)[C@@H]1O [sucrose, reference compound]
effect on embryo quality ([1]; 0.25 M addition to DKM+ABA, three weeks): clearly detrimental effect | Plates with 10 high quality embryos ([1]; three weeks): 0

OC[C@@H](O)[C@@H](O)[C@H](O)[C@H](O)CO [mannitol]
effect on maturation in the embryo cultures (somatic embryo cultures): induce synchronous maturation

O[C@H]1[C@H](O)[C@@H](O)[C@H](O)[C@@H](O)[C@H]1O [inositol, cis-1,2,3,5-trans-4,6-cyclohexanehexol]
outcome compared with the Scots pine experiments [2]: showed the same tendencies | signs of premature germination (hypocotyl extension, greening of cotyledons) ([3]; 0.0005 M and 0.1 M inositol, four weeks): some of the embryos showed characteristic signs of premature germination | maturation and precocious germination ([3]; 0.2-0.3 M inositol, four weeks): precocious germination was inhibited | proportion of embryos that developed healthy roots on the germination medium, compared with 0.0005 M ([3]; 0.25 M inositol): higher proportion | signs of stress (red colour under the cotyledons) within two days of germination on DKM ([3]; 0.25 M inositol): no such signs of stress | condition of embryos compared with those exposed to 0.0005 M inositol ([3]; 0.25 M inositol, groups of ten embryos germinated on DKM): in better condition | effect on further maturation of the embryos ([3]; 0.5 M inositol): inhibited further maturation of the embryos | effect on embryo development (summary) ([4]; 0.2-0.3 M inositol): synchronized development of the embryos by inhibiting germination but not embryo development | root development, indicating premature germination ([4]; 0.2-0.3 M inositol): inhibited almost completely | ratio of width one third down the hypocotyl (2) to width two thirds down the hypocotyl (3) ([4]; 0.2-0.3 M inositol, FIG. 5a-c): just above unity | coefficient of variation of width across the cotyledons (minimum) ([4]; cell-line 28:05, 0.25 M inositol, FIG. 4): 35% | inositol concentration at which the coefficient of variation of hypocotyl length is at a minimum (synchrony maximal) ([4]; cell-line 61:21, FIG. 3): 0.25 M | root development, indicating premature germination ([4]; low concentrations of inositol): present | variation in hypocotyl length ([4]; the other two cell-lines (19:01, 28:05), higher concentrations of inositol): reduced markedly | embryos of good quality relative to mannitol plus sorbitol ([1]; 0.25 M inositol vs 0.125 M mannitol plus 0.125 M sorbitol): about twice | Plates with 10 high quality embryos ([1]; three weeks): 6 | need for partial drying before germination (somatic embryo cultures; [9]): require no further partial drying before germination | quality of mature embryos formed (somatic embryo cultures; high concentrations of inositol (myo-inositol) in the culture media): more robust mature embryos with improved rooting capabilities | effect on maturation in the embryo cultures (somatic embryo cultures): induce synchronous maturation | root length after 0.2 to 0.3 M inositol compared with 0 to 0.1 M inositol ([5]; all four experiments of Example 5, paired t-test, P<0.03): significantly greater | germination, measured by root length after 11 days on germination medium ([5]; cell-line 95:61:21, 0.25 M inositol for 17 days, 15 embryos, FIG. 6a): fastest | subsequent root growth on germination medium ([5]; cell-lines 19:01 and 28:05, 16 days inositol, root length at 12 or 14 days, FIGS. 6c, 6d): advantages of treatment with high concentrations of inositol for subsequent root growth | rooting, root length measured 29 days after planting on prematuration medium ([5]; replicate of cell-line 61:21, 0.25 M inositol for 25 days, 10 embryos, FIG. 6b): rooting fastest | germination compared with partially dried embryos matured by standard procedures ([5]; small scale comparison): shoots grow faster and more vigorously | condition of plants after three months in stonewool ([6]; 0.25 M inositol, growth chamber, continuous light, 20° C.): vigorous and healthy | longer term effects on subsequent growth [6, 9]: no unexpected longer term effects on subsequent growth | embryos that developed into bent plantlets (number) [7, 10]: 12 | embryos that developed into bent plantlets (percent) [7, 10]: 9% | embryo appearance compared with controls ([7]; 38 days DKM+ABA then 25 days DKM+0.25 M inositol+ABA, bioreactors): strikingly more uniform, and broader in relation to length | yield of high-quality embryos relative to untreated controls ([7]; bioreactor experiment, 0.25 M inositol): six to eight | embryo appearance compared with embryos from the standard protocol ([8]; 0.25 M inositol): strikingly more uniform and broader in relation to length | plantlets that survived and continued to grow after being planted out at once in pots containing mineral wool ([8]; 0.25 M inositol 12 days, of about 50 plantlets planted out): fifteen | plantlets that grew well enough to plant out in pots of mineral wool ([8]; 0.25 M inositol 12 days, of sixty-two plantlets grown about 2 months on solid germination medium): 51 | plants growing vigorously a month later ([8]; 0.25 M inositol 12 days, of the 51 planted out in mineral wool): At least 48 | germination after return to standard DKM medium containing ABA ([8]; 0.25 M inositol for 12 days, observed after 8 days on standard DKM+ABA): many embryos had germinated and formed healthy well developed small plantlets
